# Measurements from article PMC8038331, “Discovery of a Novel Acetylcholinesterase Inhibitor by Fragment-Based Design and Virtual Screening” (Molecules, 2021).
# pIC50: −log10 of the molar value. Values joined by “and” are separate entries in the source; they are usually repeats but may differ in a detail not shown here. Identical values can stand only once.
# Assays:
# [1] = target: T1, acetylcholinesterase from Electrophorus electricus (eeAChE) (Electrophorus electricus, UniProt O42275); assay: biochemical; type: biochemical
# T1 construct: purchased Sigma-Aldrich
# Protocol: However, the docking simulations were conducted on human AChE (rhAChE).
# The microplate assay used for measuring AChE inhibitory activity was as described by Ellman with the modifications added by López. Acetylthiocholine iodide (ATCI) in a solution with 5,5′-dithiobis(2-nitrobenzoic acid) (DTNB) was used as a substrate for the acetylcholinesterase from Electrophorus electricus (Steinheim, Sigma-Aldrich, Germany). 50 μL of AChE (0.25 U/mL) dissolved in phosphate buffer (8 mM K2HPO4, 2.3 mM NaH2PO4, 0.15 M NaCl, pH 7.5) and 50 μL of the sample dissolved in the same buffer were added to the wells. The plates were incubated for 30 min at room temperature before the addition of 100 μL of the substrate solution (0.04 M Na2HPO4, 0.2 mM DTNB, 0.24 mM ATCI, pH 7.5). […] Enzyme activity was calculated as an inhibition percentage compared to an assay using a buffer without any inhibitor. […] The AChE inhibitory data were analyzed with the software package Prism 9 (GraphPad Inc., San Diego, USA). The IC50 values were measured in triplicate, and the results are presented as means ± SD.
# [2] = Neurotoxicity test, MTT-dye reduction assay on neuro-2A cells; type: cell-based, murine; conditions: mouse, neuro-2A neuroblastoma cells, 72 h incubation
# Protocol: The cytotoxicity of compound 8 was tested on neuro-2A cells as described in the Materials and Мethods section.
# To assess the neurocytotoxicity of the selected compound, murine neuroblastoma neuro-2A cells (German collection DSMZ, Braunschweig, Germany) were used. They were cultivated under standard conditions: complete medium (90% DMEM, 10% heat-inactivated FBS, and non-essential amino acids); 37 °C and 5% CO2 in a fully humidified atmosphere. The cell line was kept in the logarithmic growth phase by splitting 1:4 once a week using trypsin/EDTA. About 30% of the cells grew like neuronal cells. For the experimental evaluation of the cytotoxicity, the cells were plated in 96-well flat-bottomed plates at the recommended density of around 1100 cells/25 cm^2. After 24 h, the cells were treated with a series of concentrations (100, 50, 25, 12.5, 6.25 µM) of the tested compound, and after 72 h incubation, an MTT-dye reduction assay was performed. MTT stock solution (10 mg/mL in PBS) was added (0.01 mL/well) at the end of incubation. Plates were further incubated at 37 °C for 4 h. Next, the formazan crystals were dissolved by the addition of 0.110 mL/well 5% formic acid in 2-propanol (v/v). Absorption was measured at 580 nm wavelength on an automated ELISA reader Labexim LMR1. […]
# [3] = tested on: murine neuroblastoma neuro-2A cells; conditions: read-out: Neurotoxicity on neuro-2A cells (IC50); cited from earlier work
# T1 sequence (O42275 24-633): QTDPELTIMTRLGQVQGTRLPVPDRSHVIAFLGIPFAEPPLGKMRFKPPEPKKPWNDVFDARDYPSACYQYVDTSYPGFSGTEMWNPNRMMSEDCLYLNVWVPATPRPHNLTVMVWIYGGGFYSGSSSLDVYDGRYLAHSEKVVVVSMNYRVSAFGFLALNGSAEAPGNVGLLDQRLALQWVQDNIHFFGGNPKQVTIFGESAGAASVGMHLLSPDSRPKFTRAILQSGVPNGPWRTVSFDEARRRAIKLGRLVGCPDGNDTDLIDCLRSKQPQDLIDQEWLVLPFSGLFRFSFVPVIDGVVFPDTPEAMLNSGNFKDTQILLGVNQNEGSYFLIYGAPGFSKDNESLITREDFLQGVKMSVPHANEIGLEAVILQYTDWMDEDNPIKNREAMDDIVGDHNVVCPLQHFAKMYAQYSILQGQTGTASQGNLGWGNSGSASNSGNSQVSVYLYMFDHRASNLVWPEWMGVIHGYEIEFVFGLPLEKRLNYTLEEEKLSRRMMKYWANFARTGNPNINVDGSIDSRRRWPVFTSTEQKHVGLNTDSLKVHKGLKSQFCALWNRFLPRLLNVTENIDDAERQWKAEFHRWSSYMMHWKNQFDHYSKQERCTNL
Structure (SMILES),Times more active than GAL (AChE inhibition) [1],"pIC50 ([1]; eeAChE, Ellman's method, 30 min preincubation, mean ± SD, triplicate, read-out: Inhibitory activity on eeAChE (IC50))",IC50 at 72 h [2],pIC50 [3]
"COc1ccc2c3c1O[C@H]1C[C@@H](O)C=C[C@@]31CCN(CCNC(=O)CCc1ccccc1-c1ccccc1)C2 [Compound 8, 3-(biphenyl-2-yl)-N-{2-[(4aS,6R,8aS)-6-hydroxy-3-methoxy-5,6,9,10-tetrahydro-4aH-[1]benzofuro[3a,3,2-ef][2]benzazepin-11(12H)-yl]ethyl}propanamide]",68 times,7.55 and 7.56,> 100000 nM,
"COc1ccc2c3c1O[C@H]1C[C@@H](O)C=C[C@@]31CCN(C)C2 [GAL, Galantamine]",,,,< 4.30
